Test results published in EP3840748B1, “SUBSTITUTED IMIDAZOLES FOR THE INHIBITION OF TGF-BETA AND METHODS OF TREATMENT” (Clavius Pharmaceuticals, LLC, priority 2018, dated 2020).
Counter-ions that a name gives are not always drawn.

What was measured:
[1] = target: T1, TGFBR1 (ALK5) (Homo sapiens, UniProt P36897); assay: LanthaScreen Eu Kinase Binding Assay TGFBR1 (ALK5) (ThermoFisher SelectScreen); conditions: ALK5 5 nM, Tracer #178 5 nM, Eu-anti-GST antibody 2 nM, 1 hour at room temperature, 1% DMSO; read-out: TβRI (ALK5) Binding IC50
T1 sequence (P36897 34-503): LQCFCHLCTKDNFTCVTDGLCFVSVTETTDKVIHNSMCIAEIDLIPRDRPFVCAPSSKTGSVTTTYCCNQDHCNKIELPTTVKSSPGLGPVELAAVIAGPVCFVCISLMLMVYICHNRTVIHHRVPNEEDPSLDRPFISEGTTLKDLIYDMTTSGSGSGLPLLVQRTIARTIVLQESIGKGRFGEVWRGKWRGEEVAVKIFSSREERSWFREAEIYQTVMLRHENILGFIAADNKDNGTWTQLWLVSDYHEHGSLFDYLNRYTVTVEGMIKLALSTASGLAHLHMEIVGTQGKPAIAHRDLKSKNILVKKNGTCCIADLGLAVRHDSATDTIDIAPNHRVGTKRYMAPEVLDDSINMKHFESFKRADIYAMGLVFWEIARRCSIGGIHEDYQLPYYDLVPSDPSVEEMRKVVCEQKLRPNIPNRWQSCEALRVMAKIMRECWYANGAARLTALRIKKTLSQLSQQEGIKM
Source text: (§1) Table 2, below, describes the results of assays carried out on some compounds provided by the present disclosure. Exemplified compounds are confirmed to inhibit ALK5 activity in enzyme and cellular assays in the following assay systems conducted by ThermoFisher in Madison, WI according to their commercially available protocols.
ThermoFisher SelectScreen™ Biochemical Kinase Profiling Service, LanthaScreen™Eu Kinase Binding Assay TGFBR1 (ALK5)
Exemplified compounds are screened in 1% DMSO (final concentration) by 3-fold serial dilutions from 10,000 nM to 0.316 nM or at single concentrations of 10,000, 1000 and 100 nM according to the following protocol. To low volume, white 384-well plates (Greiner Cat#784207) add 160 nL 100x compound in 100% DMSO, 3.84 uL kinase buffer (50 mM HEPES, pH 7.5, 0.01% BRIJ-35, 10 mM MgCl2, 1 mM EGTA), 8 uL 2x kinase/antibody mixture in kinase buffer (final ALK5 concentration of 5 nM; final Eu-anti-GST antibody concentration of 2 nM), 4 uL 4x Tracer #178 in kinase buffer (final concentration of 5 nM). Gently shake the plates for 30 seconds and incubate at room temperature for 1 hour before reading fluorescence on a plate reader. Percent inhibition is determined compared to DMSO only control (maximal ALK5 tracer binding) and sigmoidal dose response curve fit yielded IC50 values as indicated in Table 2.

[2] = tested on: TGF-beta 1 stimulated SBE-bla HEK 293T; assay: GeneBLAzer beta-lactamase (bla) reporter, TGF-beta 1 stimulated SBE-bla HEK 293T cell-based assay (ThermoFisher SelectScreen); conditions: Homo sapiens; SBE-bla HEK 293T cells; 30 minutes pre-incubation with inhibitor; TGF-beta 1 0.03 nM, 5 hours; inhibitor 10,000nM to 0.316nM; read-out: Cells (SBE_HEK293T) IC50
Source text: as §1
ThermoFisher SelectScreen™ Cell-based Pathway Profiling Service GeneBLAzer Beta-lactamase (bla) Reporter Technology - TGF-beta 1 stimulated SBE-bla HEK 293T Cell-based Assay
SBE-bla HEK 293T cells are thawed and re-suspended in Assay Media (OPTI-MEM, 0.5% dialyzed FBS, 0.1 mM NEAA, 1 mM Sodium Pyruvate, 100 U/mL/100 µg/mL Pen/Strep) to a concentration of 625,000 cells/mL. 32 µL of cell suspension (20,000 cells) is added to each well of a 384-well Poly-D-Lysine assay plate. Cells in Assay Media are incubated for 16-24 hours in the plate at 37°C/5% CO2 in a humidified incubator. 4 µL of a 10X serial dilution of ALK5 inhibitors (10x = 100,000-3.16 nM) is added to appropriate wells of the plate and pre-incubated at 37°C/5% CO2 in a humidified incubator with cells for 30 minutes. Final concentration of inhibitor ranged from 10,000nM to 0.316nM. 4 µL of 10X TGF-beta 1 (final concentration of 0.03 nM) is added to wells containing the inhibitors. The plate is incubated for 5 hours at 37°C/5% CO2 in a humidified incubator. 8 µL of 1 µM Substrate Loading Solution is added to each well and the plate is incubated for 2 hours at room temperature before being read on a fluorescence plate reader. Percent inhibition is determined compared to DMSO only control (maximal TGF-beta 1 stimulation) and sigmoidal dose response curve fit yielded IC50 values as indicated in Table 2. TABLE 2: Biological activity assay results

Structure (SMILES)	IC50 [1] [nM]	IC50 [2] [nM]
NC(=O)c1ncnc2ccc(-c3c(-c4ccn(C5CC5)n4)nc4sccn34)cc12 [Compound 96, 6-(6-(1-Cyclopropyl-1H-pyrazol-3-yl)imidazo[2,1-b]thiazol-5-yl)quinazoline-4-carboxamide]	1.7	24.9
CC(C)n1ccc(-c2nc3sccn3c2-c2ccc3nc[nH]c(=O)c3c2)n1 [Compound 97, 6-(6-(1-Isopropyl-1H-pyrazol-3-yl)imidazo[2,1-b]thiazol-5-yl)quinazolin-4(3H)-one hydrochloride]	12.5	528
